Experimental data reported in patent publication US10344025B2, “GLS1 inhibitors for treating disease” (Board of Regents, The University of Texas System, priority 2014, dated 2019).
Blank lines part the entries; values can stand above or below the molecule they belong to.

Key:
[1] = target: purified recombinant human GAC (GLS1) (Homo sapiens (Human), UniProt O94925); test: GLS1 Enzymatic Activity Assay (dual-coupled enzymatic assay, resorufin/Amplex UltraRed readout); type: biochemical;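 note: glutamate from GAC coupled via glutamate oxidase and peroxidase to resorufin, read as fluorescence (ex 530, em 590 nm) kinetically or at 20 min, four-parameter logistic IC50 fit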
Sequence of purified recombinant human GAC (GLS1) (O94925 other isoform, or with tags, fused parts or gaps): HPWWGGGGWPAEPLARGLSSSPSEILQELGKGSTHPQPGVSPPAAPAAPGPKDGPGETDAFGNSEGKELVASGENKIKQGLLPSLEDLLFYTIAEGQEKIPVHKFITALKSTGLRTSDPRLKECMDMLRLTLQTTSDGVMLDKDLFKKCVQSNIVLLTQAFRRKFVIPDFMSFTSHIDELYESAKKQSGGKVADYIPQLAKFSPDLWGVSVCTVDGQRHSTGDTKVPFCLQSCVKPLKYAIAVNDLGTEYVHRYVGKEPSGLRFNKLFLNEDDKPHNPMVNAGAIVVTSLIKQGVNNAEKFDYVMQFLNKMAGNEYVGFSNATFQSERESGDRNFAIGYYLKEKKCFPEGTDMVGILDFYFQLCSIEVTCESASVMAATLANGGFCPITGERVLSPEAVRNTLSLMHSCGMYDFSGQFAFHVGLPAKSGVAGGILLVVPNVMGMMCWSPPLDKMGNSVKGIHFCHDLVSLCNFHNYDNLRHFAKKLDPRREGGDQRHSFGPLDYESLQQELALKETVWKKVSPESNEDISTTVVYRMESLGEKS

A549 cells = test: Proliferation Assay (A549 viability, Cell Titer Fluor, 72 hours); type: cell-based; conditions: Homo sapiens, A549, 72 h
Summary of the method: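 Cell Titer Fluor fluorescence after 72 h compound treatment (0.5% DMSO, 37 °C, 5% CO2) of A549 cells plated 24 h earlier at 1000/well. Four-parameter logistic fitting gave IC50.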

SMILES: CNC(=O)c1cn(CC(F)CCc2nnc(NC(=O)Cc3ncc(Cl)cc3F)s2)nn1 (stereo not shown) [Example 564, 1-(4-{5-[2-(5-chloro-3-fluoropyridin-2-yl)acetamido]-1,3,4-thiadiazol-2-yl}-2-fluorobutyl)-N-methyl-1H-1,2,3-triazole-4-carboxamide]
IC50 [1]: < 100 nM
EC50 (A549 cells): 500 to 5000 nM

SMILES: O=C(Cc1cc(OC(F)(F)F)ccc1F)Nc1ccc(CCCCn2cc(C(=O)NCc3ccccn3)nn2)nn1 [Example 585, 1-(4-(6-(2-(2-fluoro-5-(trifluoromethoxy)phenyl)acetamido)pyridazin-3-yl)butyl)-N-(pyridin-2-ylmethyl)-1H-1,2,3-triazole-4-carboxamide]
IC50 [1]: < 100 nM
EC50 (A549 cells): < 100 nM

SMILES: O=C(NCc1cccc(OC(F)(F)F)c1)c1cn(CCCCn2cc(C(=O)NCc3cnccn3)nn2)nn1 [Example 126, N-(pyrazin-2-ylmethyl)-1-{4-[4-({[3-(trifluoromethoxy)phenyl]methyl}carbamoyl)-1H-1,2,3-triazol-1-yl]butyl}-1H-1,2,3-triazole-4-carboxamide]
IC50 [1]: 100 to 500 nM
EC50 (A549 cells): 100 to 500 nM

SMILES: CCOC(=O)NCc1cn(CCCCn2cc(C(=O)NCc3cccc(OC(F)(F)F)c3)nn2)nn1 [Example 54, ethyl N-[(1-{4-[4-({[3-(trifluoromethoxy)phenyl]methyl}carbamoyl)-1H-1,2,3-triazol-1-yl]butyl}-1H-1,2,3-triazol-4-yl)methyl] carbamate]
IC50 [1]: 100 to 500 nM
EC50 (A549 cells): 100 to 500 nM

SMILES: COC(=O)Nc1ccc(CCCCn2cc(C(=O)NCc3cc(C(F)(F)F)ccn3)nn2)nn1 [Example 224, methyl (6-(4-(4-(((4-(trifluoromethyl)pyridin-2-yl)methyl)carbamoyl)-1H-1,2,3-triazol-1-yl)butyl)pyridazin-3-yl)carbamate]
IC50 [1]: 100 to 500 nM
EC50 (A549 cells): 100 to 500 nM

SMILES: O=C(Cc1cc(OC(F)(F)F)ccc1F)Nc1nnc(CCC(F)Cn2cc(C(=O)NCc3cccnc3)nn2)s1 (stereo not shown) [Example 218, 1-(2-fluoro-4-(5-(2-(2-fluoro-5-(trifluoromethoxy)phenyl)acetamido)-1,3,4-thiadiazol-2-yl)butyl)-N-(pyridin-3-ylmethyl)-1H-1,2,3-triazole-4-carboxamide]
IC50 [1]: < 100 nM
EC50 (A549 cells): < 100 nM

SMILES: O=C(Cc1cc(OC(F)(F)F)ccc1F)Nc1ccc(CCCCc2nnc(C(=O)NCCO)s2)nn1 [Example 597, 5-(4-(6-(2-(2-fluoro-5-(trifluoromethoxy)phenyl)acetamido)pyridazin-3-yl)butyl)-N-(2-hydroxyethyl)-1,3,4-thiadiazole-2-carboxamide]
IC50 [1]: < 100 nM
EC50 (A549 cells): 100 to 500 nM

SMILES: CNC(=O)c1cn(CCCCc2ccc(NC(=O)Cc3cc(-c4ccccc4C(F)(F)F)ccn3)nn2)nn1 [Example 605, N-methyl-1-(4-(6-(2-(4-(2-(trifluoromethyl)phenyl)pyridin-2-yl)acetamido)pyridazin-3-yl)butyl)-1H-1,2,3-triazole-4-carboxamide]
IC50 [1]: < 100 nM
EC50 (A549 cells): < 100 nM

SMILES: Cc1ccc(CNC(=O)c2cn(CCCCc3nnc(C(=O)NCc4ccccn4)s3)nn2)cn1 [Example 62, 5-[4-(4-{[(6-methylpyridin-3-yl)methyl]carbamoyl}-1H-1,2,3-triazol-1-yl)butyl]-N-(pyridin-2-ylmethyl)-1,3,4-thiadiazole-2-carboxamide]
IC50 [1]: 100 to 500 nM
EC50 (A549 cells): 500 to 5000 nM

SMILES: Cc1ccc(CNC(=O)c2cn(CCC(F)Cn3cc(C(=O)NCc4cc(OC(F)(F)F)ccc4F)nn3)nn2)cn1 (stereo not shown) [Example 370, 1-{3-fluoro-4-[4-({[2-fluoro-5-(trifluoromethoxy)phenyl]methyl}carbamoyl)-1H-1,2,3-triazol-1-yl]butyl}-N-[(6-methylpyridin-3-yl)methyl]-1H-1,2,3-triazole-4-carboxamide]
IC50 [1]: < 100 nM
EC50 (A549 cells): < 100 nM

SMILES: CNC(=O)c1cn(CCCCc2ccc(NC(=O)Cc3cccc(C4CCOCC4)c3)nn2)nn1 [Example 217, N-methyl-1-(4-(6-(2-(3-(tetrahydro-2H-pyran-4-yl)phenyl)acetamido)pyridazin-3-yl)butyl)-1H-1,2,3-triazole-4-carboxamide]
IC50 [1]: < 100 nM
EC50 (A549 cells): 100 to 500 nM

SMILES: O=C(Cc1cc(OC(F)(F)F)ccc1F)Nc1cn(CCC(F)Cn2cc(C(=O)NCc3ncccc3F)nn2)nn1 (stereo not shown) [Example 417, 1-[2-fluoro-4-(4-{2-[2-fluoro-5-(trifluoromethoxy)phenyl]acetamido}-1H-1,2,3-triazol-1-yl)butyl]-N-[(3-fluoropyridin-2-yl)methyl]-1H-1,2,3-triazole-4-carboxamide]
IC50 [1]: < 100 nM
EC50 (A549 cells): < 100 nM

SMILES: O=C(NCc1cc(C(F)(F)F)ccn1)c1cn(CC(F)CCn2cc(C(=O)N[C@@H](CO)c3ccccc3)nn2)nn1 (stereo partly drawn) [Example 467, 1-[2-fluoro-4-(4-{[(1R)-2-hydroxy-1-phenylethyl]carbamoyl}-1H-1,2,3-triazol-1-yl)butyl]-N-{[4-(trifluoromethyl)pyridin-2-yl]methyl}-1H-1,2,3-triazole-4-carboxamide]
IC50 [1]: 100 to 500 nM
EC50 (A549 cells): 100 to 500 nM

SMILES: O=C(Cc1cc(OC(F)(F)F)ccc1F)Nc1cn(CC(F)CCn2cc(C(=O)NCc3ncccc3F)nn2)nn1 (stereo not shown) [Example 378, 1-[3-fluoro-4-(4-{2-[2-fluoro-5-(trifluoromethoxy)phenyl]acetamido}-1H-1,2,3-triazol-1-yl)butyl]-N-[(3-fluoropyridin-2-yl)methyl]-1H-1,2,3-triazole-4-carboxamide]
IC50 [1]: < 100 nM
EC50 (A549 cells): < 100 nM

SMILES: O=C(Cc1cccc(OC(F)(F)F)c1)Nc1ccc(CCCCn2cc(C(=O)NCC(CO)CO)nn2)nn1 [Example 552, N-[3-hydroxy-2-(hydroxymethyl)propyl]-1-[4-(6-{2-[3-(trifluoromethoxy)phenyl]acetamido}pyridazin-3-yl)butyl]-1H-1,2,3-triazole-4-carboxamide]
IC50 [1]: 500 to 5000 nM
EC50 (A549 cells): > 5000 nM

SMILES: CNC(=O)c1cn(CCC(F)Cn2cc(NC(=O)Cc3cccc(OC(F)(F)F)c3)nn2)nn1 (stereo not shown) [Example 524, 1-[3-fluoro-4-(4-{2-[3-(trifluoromethoxy)phenyl]acetamido}-1H-1,2,3-triazol-1-yl)butyl]-N-methyl-1H-1,2,3-triazole-4-carboxamide]
IC50 [1]: < 100 nM
EC50 (A549 cells): 100 to 500 nM

Further lines, results first:

IC50 [1]: < 100 nM
EC50 (A549 cells): < 100 nM
SMILES: Cc1ccc(CNC(=O)c2cn(CCC(F)Cn3cc(NC(=O)Cc4cccc(OC(F)(F)F)c4)nn3)nn2)cn1 (stereo not shown) [Example 328, 1-[3-fluoro-4-(4-{2-[3-(trifluoromethoxy)phenyl]acetamido}-1H-1,2,3-triazol-1-yl)butyl]-N-[(6-methylpyridin-3-yl)methyl]-1H-1,2,3-triazole-4-carboxamide]

IC50 [1]: < 100 nM
EC50 (A549 cells): 500 to 5000 nM
SMILES: Cc1ccc(CNC(=O)c2cn(CCCCc3nnc(C(=O)NCc4ccc(C)nc4)s3)nn2)cn1 [Example 64, N-[(6-methylpyridin-3-yl)methyl]-5-[4-(4-{[(6-methylpyridin-3-yl)methyl]carbamoyl}-1H-1,2,3-triazol-1-yl)butyl]-1,3,4-thiadiazole-2-carboxamide]

IC50 [1]: < 100 nM
EC50 (A549 cells): < 100 nM
SMILES: O=C(Cc1cc(OC(F)(F)F)ccc1F)Nc1cn(CC(F)CCn2cc(C(=O)NCc3ccccn3)nn2)nn1 (stereo not shown) [Example 375, 1-[3-fluoro-4-(4-{2-[2-fluoro-5-(trifluoromethoxy)phenyl]acetamido}-1H-1,2,3-triazol-1-yl)butyl]-N-(pyridin-2-ylmethyl)-1H-1,2,3-triazole-4-carboxamide]

IC50 [1]: < 100 nM
EC50 (A549 cells): < 100 nM
SMILES: O=C(Cc1ccccn1)Nc1nnc(CCCCn2cc(C(=O)NCc3cc(OC(F)(F)F)ccc3F)nn2)s1 [Example 554, N-{[2-fluoro-5-(trifluoromethoxy)phenyl]methyl}-1-(4-{5-[2-(pyridin-2-yl)acetamido]-1,3,4-thiadiazol-2-yl}butyl)-1H-1,2,3-triazole-4-carboxamide]

IC50 [1]: < 100 nM
EC50 (A549 cells): 100 to 500 nM
SMILES: O=C(Cc1cccc(OC(F)(F)F)c1)Nc1nnc(CCCCn2cc(C(=O)NCC3CC3)nn2)s1 [Example 11, N-(cyclopropylmethyl)-1-[4-(5-{2-[3-(trifluoromethoxy)phenyl]acetamido}-1,3,4-thiadiazol-2-yl)butyl]-1H-1,2,3-triazole-4-carboxamide]

IC50 [1]: < 100 nM
EC50 (A549 cells): 100 to 500 nM
SMILES: O=C(Cc1ccccc1)Nc1nnc(CCCCn2cc(C(=O)NCc3ccccc3)nn2)s1 [Example 15, N-benzyl-1-{4-[5-(2-phenylacetamido)-1,3,4-thiadiazol-2-yl]butyl}-1H-1,2,3-triazole-4-carboxamide]

IC50 [1]: < 100 nM
EC50 (A549 cells): < 100 nM
SMILES: O=C(NCc1cc(OC(F)(F)F)ccc1F)c1cn(CC(F)CCc2nnc(C(=O)NCc3ccc(C(F)(F)F)cn3)s2)nn1 (stereo not shown) [Example 465, 5-{3-fluoro-4-[4-({[2-fluoro-5-(trifluoromethoxy)phenyl]methyl}carbamoyl)-1H-1,2,3-triazol-1-yl]butyl}-N-{[5-(trifluoromethyl)pyridin-2-yl]methyl}-1,3,4-thiadiazole-2-carboxamide]

IC50 [1]: < 100 nM
EC50 (A549 cells): < 100 nM
SMILES: O=C(NCc1cccc(OC(F)F)c1)c1cn(CCCCn2cc(C(=O)NCc3cc(C(F)(F)F)ccn3)nn2)nn1 [Example 132, {4-[4-({[3-(difluoromethoxy)phenyl]methyl}carbamoyl)-1H-1,2,3-triazol-1-yl]butyl}-N-{[4-(trifluoromethyl)pyridin-2-yl]methyl}-1H-1,2,3-triazole-4-carboxamide]

IC50 [1]: < 100 nM
EC50 (A549 cells): < 100 nM
SMILES: O=C(NCc1cc(C(F)(F)F)ccn1)c1cn(CC(F)CCc2nnc(C(=O)NCc3cc(C(F)(F)F)ccn3)s2)nn1 (stereo not shown) [Example 520, 5-{3-fluoro-4-[4-({[4-(trifluoromethyl)pyridin-2-yl]methyl}carbamoyl)-1H-1,2,3-triazol-1-yl]butyl}-N-{[4-(trifluoromethyl)pyridin-2-yl]methyl}-1,3,4-thiadiazole-2-carboxamide]

IC50 [1]: 100 to 500 nM
EC50 (A549 cells): 500 to 5000 nM
SMILES: CNC(=O)c1cn(CC(F)CCn2cc(C(=O)NCc3cc(C(F)(F)F)ccn3)nn2)nn1 (stereo not shown) [Example 149, 1-{2-fluoro-4-[4-({[4-yl]methyl}carbamoyl)-1H-1,2,3-triazol-1-yl]butyl}-N-methyl-1H-1,2,3-triazole-4-carboxamide]
